Series [1] is described as follows: Antioxidant activity assessed as DPPH radical scavenging activity by spectrophotometry. Type of series: physicochemical. A general note: DPPH is a stable violet radical that fades when it is reduced.
Series [2] in a line: Antioxidant activity assessed as ABTS radical scavenging activity by spectrophotometry. Type of series: physicochemical.
Series [3] can be described thus: Antioxidant activity assessed as ROO. radical scavenging activity by TRAP assay. Type of series: physicochemical.
Series [4] can be described thus: Antioxidant activity assessed as superoxide radical scavenging activity after 5 mins by nitrotetrazolium blue chloride assay. Type of series: physicochemical.
Series [5] in a line: Antiproliferative activity against human SMMC7721 cells after 72 hrs by MTT assay. In kind it is functional, cell-based. As to conditions: SMMC-7721, 72 h.
For series [6], the system named is MCF7. Put plainly: Antiproliferative activity against human MCF7 cells after 72 hrs by MTT assay. Type of series: functional, cell-based. The settings on record: MCF7, 72 h. (Formazan colour is commonly taken as a measure of viable cells.)
The nature of series [7]: Antiproliferative activity against human PC3 cells after 72 hrs by MTT assay. Type of series: functional, cell-based. As to conditions: PC-3, 72 h.
Series [8] in a line: Drug metabolism in rat plasma after 24 hrs by HPLC analysis. In kind it is ADME, cell-free. The settings on record: read-out: Drug metabolism.
The next series has as its system SMMC-7721. Put plainly: Ratio of curcumin IC50 to compound IC50 for human SMMC7721 cells after 72 hrs by MTT assay. Type of series: functional.
Series [9] deals with MCF7. Put plainly: Ratio of curcumin IC50 to compound IC50 for human MCF7 cells after 72 hrs by MTT assay. In kind it is functional.
For another series, the system named is PC-3. Put plainly: Ratio of curcumin IC50 to compound IC50 for human PC3 cells after 72 hrs by MTT assay. Type of series: functional.
For another series, the system named is Plasma. Put plainly: Stability in rat plasma after 24 hrs by HPLC analysis. In kind it is ADME, cell-free.

Where only a bound is given, the exact number is not on record here.

Regarding `COc1cc(/C=C/C(=O)/C=C/c2ccc(O)c(OC)c2)ccc1O`, the IC50 – broadly, the concentration needed to halve the response being measured – in series [1] came to 9.24 µM; in series [2], 30.2 µM; in [3], 44.5 µM; in [4] it was 72.6 µM; in series [5], 18.4 µM; in the series on MCF7 [6], 22.5 µM. In series [7], this compound gave an IC50 of 36.3 µM. Also, in series [8], the metabolised at 24 h was 11.9%. The “Ratio IC50” value in the series on SMMC-7721, in the series on MCF7 [9] and in the series on PC-3 was 1.6 each time.
`CCOc1cc(/C=C/C(=O)/C=C/c2ccc(O)c(OCC)c2)ccc1O`: the IC50 in series [1] amounted to 50.1 µM; in [2] it was 128 µM; in series [3], 128 µM; in [4] it was 193 µM; in [5], 19 µM; with MCF7 [6], 26.6 µM. In series [7], this compound displayed an IC50 of 51.4 µM.
Take `COc1cc(/C=C/C(=O)/C=C/c2ccc(C)c(C)c2)ccc1O`: the IC50 in [1] is 41.5 µM; in series [2] it was 103 µM; in series [3], 136 µM; in series [4], 178 µM; in [5] it was 23.4 µM; in the series on MCF7 [6], 21.7 µM.
Regarding `COc1ccc(/C=C/C(=O)/C=C/c2cc(OC)c(OC)c(OC)c2)cc1O`, the IC50 was found to be 34.4 µM in series [1]; 99.5 µM in [2]; 118 µM in [3]; 164 µM in series [4]; 11.5 µM in series [5]; 40.3 µM in the series with MCF7 [6]. In series [7], this compound gave an IC50 of 34.9 µM.
`COc1ccc(/C=C/C(=O)/C=C/c2ccc(O)c(OC)c2)cc1O`: the IC50 is 46.3 µM in series [1]; 105 µM in series [2]; 123 µM in series [3]; 169 µM in series [4]; 21.6 µM in [5]; 56.5 µM in the series with MCF7 [6]. Also, in series [7], the IC50 worked out at 61.3 µM.
With `COc1cc(/C=C/C(=O)/C=C/c2cc(OC)c(O)c(OC)c2)ccc1O`, the IC50 came out at 28.7 µM in [1]; 85.7 µM in [2]; 96.4 µM in [3]; 124 µM in series [4]; 15.1 µM in [5]; 28.9 µM in the series on MCF7 [6]. This compound also showed an IC50 in series [7] of 70.2 µM.
For the compound `CCOc1cc(/C=C/C(=O)/C=C/c2ccc(O)c(OC)c2)ccc1O`, the IC50 in [1] was found to be 31.6 µM; in series [2], 80.6 µM; in series [3], 97.2 µM; in series [4] it was 122 µM; in series [5], 27.3 µM; with MCF7 [6], 41.9 µM. The same compound yielded an IC50 in series [7] of 82.4 µM. Besides, the Stability result with Plasma is “Unstable”.
For the compound `COc1ccc(O)c(/C=C/C(=O)/C=C/c2ccc(C)c(C)c2)c1`, the IC50 came to 203 µM in series [1]; 132 µM in series [2]; 286 µM in series [3]; 207 µM in [4]; 23.4 µM in [5]; 33.3 µM in the series with MCF7 [6]. Moreover, the midpoint of inhibition in series [7], the IC50, lay at 45.5 µM. In addition, the Stability entry in the series with Plasma was “Unstable”.
Consider `COc1ccc(O)c(/C=C/C(=O)/C=C/c2ccc(OC)c(OC)c2)c1`, for which the IC50 in [1] was found to be 94.2 µM; in [2], 292 µM; in [3], 182 µM; in series [4] it was 231 µM; in series [5], 20.8 µM; in the series with MCF7 [6], 22.2 µM. In series [7], this compound displayed an IC50 of 31.6 µM. Besides, the Stability result in the series with Plasma is “Unstable”.
Regarding `COc1ccc(O)c(/C=C/C(=O)/C=C/c2cc(OC)c(OC)c(OC)c2)c1`, the IC50 stood at 94.6 µM in [1]; 114 µM in [2]; 184 µM in series [3]; 214 µM in series [4]; 25.3 µM in series [5]; 40.7 µM with MCF7 [6]. The same compound returned an IC50 in series [7] of 39.9 µM.
In the case of `COc1cc(/C=C/C(=O)/C=C/c2ccc(C)c(C)c2)cc(OC)c1O`, the IC50 in series [1] stood at 32.6 µM; in series [2], 113 µM; in series [3] it was 113 µM; in [4], 156 µM; in series [5] it was 13.6 µM; in the series with MCF7 [6] it was 52.8 µM. Further, 25.3 µM corresponded to half-maximal inhibition in series [7] (IC50).
For `COc1ccc(/C=C/C(=O)/C=C/c2cc(OC)c(O)c(OC)c2)cc1OC`, the IC50 was found to be 13.5 µM in series [1]; 36.3 µM in [2]; 47.8 µM in [3]; 80.9 µM in [4]; 24.1 µM in [5]; 9.11 µM with MCF7 [6]. For the same compound, the IC50 in series [7] was 36.9 µM.
Consider `COc1ccc(/C=C/C(=O)/C=C/c2ccc(OC)c(OC)c2)cc1OC`, for which the IC50 was greater than 5630 µM in [1]; greater than 5630 µM in series [2]; greater than 5630 µM in series [3]; greater than 5630 µM in series [4]; 14.4 µM in series [5]; 39.9 µM in the series with MCF7 [6]. Further, half-maximal inhibition in series [7] (IC50) required 21.4 µM.
With `COc1cc(/C=C/C(=O)/C=C/c2cc(OC)c(OC)c(OC)c2)cc(OC)c1OC`, the IC50 in [1] is greater than 4820 µM; in [2], greater than 4820 µM; in series [3], greater than 4820 µM; in [4], greater than 4820 µM; in series [5], 16.6 µM; in the series with MCF7 [6] it was 13.9 µM. Further, 42.1 µM corresponded to half-maximal inhibition in [7] (IC50). In the series on Plasma, the Stability entry is “Unstable”.
On to `COc1ccc(/C=C/C(=O)/C=C/c2ccc(OC)c(O)c2)cc1O`, for which the IC50 in series [1] was 92 µM; in series [2], 177 µM; in series [3], 193 µM; in [4], 204 µM; in series [5] it was 9.68 µM; in the series with MCF7 [6], 70.4 µM. For the same compound, half-maximal inhibition in series [7] (IC50) was put at 97.3 µM.
Take `COc1cc(/C=C/C(=O)/C=C/c2cc(OC)c(OC)c(OC)c2)cc(OC)c1O`: the IC50 in series [1] worked out at 28.1 µM; in [2] it was 75.1 µM; in series [3] it was 70 µM; in [4] it was 117 µM; in series [5] it was 10.9 µM; in the series on MCF7 [6], 43.6 µM. Moreover, in series [7], the half-inhibitory concentration (IC50) is 23.7 µM.
Regarding `COc1ccc(/C=C/C(=O)/C=C/c2ccc(OC)c(OC)c2)cc1O`, the half-inhibitory concentration (IC50) in series [1] stood at 19.7 µM; in series [2] it was 91.3 µM; in [3], 82 µM; in [4], 119 µM; in series [5], 39.4 µM; in the series with MCF7 [6] it was 67.1 µM. The IC50 in series [7] came out at 53.1 µM.
As to `O=C1O[C@H]([C@@H](O)CO)C(O)=C1O` [ASCORBIC ACID], the IC50 in [1] was 45.4 µM; in [2], 105 µM; in [3], 102 µM; in series [4], 167 µM.
`COc1cc(/C=C/C(=O)CC(=O)/C=C/c2ccc(O)c(OC)c2)ccc1O` [CURCUMIN]: the IC50 turned out to be 13.5 µM in [1]; 48.6 µM in series [2]; 54.4 µM in series [3]; 89.8 µM in series [4]; 39.4 µM in series [5]; 70.2 µM in the series with MCF7 [6]. Further, in [7], the IC50 came to 59 µM. In addition, in series [8], the metabolised at 24 h amounted to 55.3%.

Values taken from ChEMBL document CHEMBL3407482, “Synthesis and assessment of the antioxidant and antitumor properties of asymmetric curcumin analogues” (Eur J Med Chem, 2015).
